Consider 2 compounds from ChEMBL document CHEMBL5036343, “Discovery and development of CPL207280 as new GPR40/FFA1 agonist” (Eur J Med Chem, 2021).

What all share (assay type): ADME, organism-based
Details in all cases: in vivo

A short description of data set [1]: Half life in Wistar Han rat at 3 mg/kg, po measured after 24 hours by UPLC-MS/MS analysis.
Data set [2] is described as follows: Oral bioavailability in Wistar Han rat at 3 mg/kg measured after 24 hours by UPLC-MS/MS analysis.
Data set [3] is described as follows: Cmax in Wistar Han rat at 3 mg/kg, po measured after 24 hours by UPLC-MS/MS analysis. The arrangement: route oral, dose 3 mg/kg, time 24 hrs.
A short description of data set [4]: Tmax in Wistar Han rat at 3 mg/kg, po measured after 24 hours by UPLC-MS/MS analysis.

Molecules are shown by their SMILES.

What is called half-life is how long it takes for the measured level to halve. Read a low half-life as fast loss. One may read the bioavailability as dose-corrected exposure relative to a reference, in per cent. Lower therefore signals little systemic uptake. For orientation: Cmax means the maximum level reached in the sampled fluid or tissue. As usually defined, the Tmax is the time from dosing to the highest level. For `Cc1cc(OCCCS(C)(=O)=O)cc(C)c1-c1cccc(COc2ccc3c(c2)OC[C@H]3CC(=O)O)c1`, the half-life in data set [1] was 2.9 h. In addition, in data set [2], the bioavailability is 36%. This compound also showed a Cmax in data set [3] of 1830 ng/mL. The Tmax in data set [4] was 2 h.

Regarding `CC#C[C@@H](CC(=O)O)c1ccc(OCC(C)=C(C)C)cc1`, the half-life in data set [1] was 1.41 h. For the same compound, in data set [2], the bioavailability was 65%. This compound displayed a Cmax in data set [3] of 1700 ng/mL. Further, the Tmax in data set [4] came out at 1 h.
